Among the test systems are A498 renal; A549 NSCLC; HCT-116 colon; HOP-62 NSCLC; HS 578T breast; HT29 colon; K-562 leukemia; MDA-MB-231 breast; MDA-MB-435; PC-3 prostate; SF-539 CNS; SK-OV-3 ovarian; U251 CNS.
Test in all cases: NCI anticancer screen, dose series, 48 h

Among the data in PubChem BioAssay (NCI) are TGI values, retold here.

The structures appear in SMILES notation.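 Assay format: 96-well plates, 48-hour exposure. TGI: total growth inhibition.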 Bounds are passed on as bounds.

As to `COc1cc(/C=C\c2ccc(SC)cc2)cc(OC)c1OC`, the TGI in the assay with A498 renal was > 54.1 µM; in the assay with A549 NSCLC it was > 100 µM; in the assay on HCT-116 colon, > 26.3 µM; in the assay on HOP-62 NSCLC, > 76.3 µM; in the assay on HS 578T breast, > 100 µM; in the assay on HT29 colon it was 0.59 µM. The TGI in the assay on K-562 leukemia is > 46.8 µM; in the assay on MDA-MB-231 breast, > 100 µM; in the assay on MDA-MB-435 it was > 100 µM; with PC-3 prostate, > 100 µM; in the assay on SF-539 CNS, 0.0364 µM; with SK-OV-3 ovarian, 1.75 µM. In the assay with U251 CNS, this compound came in with a TGI of 1.11 µM.
Take `COCOc1cc(OC)ccc1C=O`: the TGI in the assay with A549 NSCLC was > 100 µM; with HCT-116 colon, > 100 µM; with HOP-62 NSCLC, > 100 µM; in the assay on HS 578T breast it was 64.9 µM; in the assay with HT29 colon, 66.8 µM; in the assay with K-562 leukemia it was > 100 µM. The TGI in the assay on MDA-MB-231 breast was > 100 µM; with MDA-MB-435 it was 40.6 µM; with PC-3 prostate it was 88.8 µM; with SF-539 CNS, 61.9 µM; in the assay on SK-OV-3 ovarian, > 100 µM; with U251 CNS, > 100 µM.
In the case of `COc1cc(O)c(C(=O)/C=C/c2ccc(O)cc2)cc1Oc1ccc(C(=O)/C=C/c2ccc(O)cc2)c(O)c1`, the TGI with A498 renal came out at 5.68 µM; in the assay on A549 NSCLC, 15.3 µM; in the assay on HCT-116 colon, 4 µM; with HOP-62 NSCLC, 9.17 µM; in the assay on HS 578T breast, 82.8 µM; in the assay on HT29 colon, 2.66 µM. In addition, the TGI with K-562 leukemia is 10.7 µM; in the assay on MDA-MB-231 breast, 9.75 µM; with MDA-MB-435, 11.8 µM; with PC-3 prostate, 19.8 µM; with SF-539 CNS, 5.51 µM; with SK-OV-3 ovarian, 9.15 µM. This compound returned a TGI in the assay on U251 CNS of 4.97 µM.
In the case of `COc1ccccc1NC(=S)N/N=C(/c1ccccc1)c1ccccn1`, the TGI in the assay on A498 renal came to 12.5 µM; with A549 NSCLC it was 16.3 µM; in the assay on HCT-116 colon it was 14.7 µM; in the assay on HOP-62 NSCLC, 12.6 µM; in the assay with HS 578T breast, 53.9 µM; in the assay with HT29 colon, 21 µM. Besides, the TGI is 11.4 µM in the assay with MDA-MB-231 breast; 20 µM in the assay on MDA-MB-435; 16.7 µM in the assay on PC-3 prostate; 12 µM in the assay with SF-539 CNS; 13.8 µM with SK-OV-3 ovarian; 14.9 µM in the assay with U251 CNS.
As to `O=C(/C=C1\N=C(c2ccccc2)N(c2ccc3c(c2)Sc2cc(N4C(=O)/C(=C/C(=O)/C=C/c5ccccc5)N=C4c4ccccc4)ccc2N3)C1=O)/C=C/c1ccccc1`, the TGI in the assay on A498 renal was 67.8 µM; in the assay on A549 NSCLC, > 100 µM; in the assay with HCT-116 colon it was > 100 µM; in the assay on HOP-62 NSCLC it was > 100 µM; in the assay with HS 578T breast it was 96.3 µM; in the assay on HT29 colon, > 100 µM. In addition, the TGI was > 100 µM in the assay on K-562 leukemia; 90 µM in the assay with MDA-MB-231 breast; 44.4 µM in the assay with MDA-MB-435; 37.6 µM with PC-3 prostate; 33.8 µM with SK-OV-3 ovarian; 57.8 µM in the assay with U251 CNS.
`O=c1[nH]c2ccc(CC(=S)N3CCN(c4ccccc4)CC3)cc2s1`: the TGI with A498 renal was > 100 µM; in the assay with HCT-116 colon it was > 100 µM; with HOP-62 NSCLC, 50.1 µM; with HS 578T breast, > 100 µM; in the assay with HT29 colon it was > 100 µM; with K-562 leukemia, > 100 µM. Besides, the TGI is > 100 µM in the assay on MDA-MB-231 breast; > 100 µM in the assay on MDA-MB-435; > 100 µM with PC-3 prostate; > 100 µM in the assay on SF-539 CNS; 44.9 µM with SK-OV-3 ovarian; 21.2 µM in the assay on U251 CNS.
With `CCCCc1ccc(N2C(=O)c3cc(C)cnc3S2(=O)=O)cc1`, the TGI with A549 NSCLC, with HCT-116 colon, with HOP-62 NSCLC, in the assay on HS 578T breast, in the assay with HT29 colon and with K-562 leukemia was > 100 µM throughout. Moreover, the TGI in the assay with MDA-MB-231 breast, with MDA-MB-435, in the assay with PC-3 prostate, in the assay with SK-OV-3 ovarian and with U251 CNS was > 100 µM each time.
Regarding `CC(=O)C1=CC=C/C1=N\Nc1ccccc1`, the TGI in the assay on A549 NSCLC is 35.1 µM; in the assay with HCT-116 colon it was 17.5 µM; in the assay on HOP-62 NSCLC it was 50.9 µM; with HS 578T breast it was 34.9 µM; with HT29 colon, 11.5 µM; in the assay on K-562 leukemia, 20.5 µM. The TGI was 24.2 µM in the assay with MDA-MB-231 breast; 27.4 µM in the assay with MDA-MB-435; 18.7 µM in the assay with PC-3 prostate; 8.64 µM in the assay on SF-539 CNS; 30.7 µM with SK-OV-3 ovarian; 9.36 µM in the assay with U251 CNS.
On to `CC1CCN(c2nnc(Cl)cc2C(=O)c2ccccc2)CC1`, for which the TGI in the assay with A498 renal is > 100 µM; with A549 NSCLC, > 100 µM; with HCT-116 colon it was > 100 µM; in the assay on HOP-62 NSCLC it was > 100 µM; in the assay with HS 578T breast, 88.7 µM; in the assay on HT29 colon, 39.5 µM. For the same compound, the TGI in the assay on K-562 leukemia is > 100 µM; in the assay with MDA-MB-231 breast it was 96.2 µM; with MDA-MB-435 it was 56.9 µM; in the assay with PC-3 prostate, > 100 µM; in the assay on SF-539 CNS, 77.4 µM; in the assay with U251 CNS, > 100 µM.
`c1ccc(COc2nc3ccc(C45CC6CC(CC(C6)C4)C5)cc3[nH]2)cc1`: the TGI was > 100 µM in the assay with A498 renal; > 100 µM in the assay with A549 NSCLC; > 83.5 µM in the assay with HCT-116 colon; > 74.8 µM in the assay with HOP-62 NSCLC; > 75.7 µM in the assay with HS 578T breast; > 100 µM with HT29 colon. The TGI with K-562 leukemia is > 100 µM; in the assay on MDA-MB-231 breast it was > 80.9 µM; in the assay with MDA-MB-435, > 94 µM; with PC-3 prostate it was > 100 µM; in the assay on SK-OV-3 ovarian, > 100 µM; with U251 CNS it was > 78.5 µM.
With `CCOC(=O)c1c(OCC)[nH]c(=O)c(C(c2ccc(F)cc2)c2c(O)c(C(=O)OCC)c(OCC)[nH]c2=O)c1O`, the TGI was 26.2 µM with A498 renal; 29.3 µM in the assay with A549 NSCLC; > 100 µM in the assay on HCT-116 colon; 36.1 µM in the assay with HOP-62 NSCLC; > 100 µM in the assay with HS 578T breast; 31.7 µM in the assay with HT29 colon. In addition, the TGI with K-562 leukemia came out at 50.8 µM; in the assay with MDA-MB-231 breast, 29.8 µM; in the assay with MDA-MB-435, 37.7 µM; in the assay with PC-3 prostate, 34.6 µM; in the assay on SF-539 CNS, 23.5 µM; in the assay on U251 CNS, 36.3 µM.
